Measurements: patent publication US11957761B2, “Compounds having α4β7 integrin inhibition activity” (priority 2021, dated 2024)

Legend:
in vivo [1] = details: male, rat, plasma, iv, 510 nmol/kg
Method: Sprague Dawley or Wistar rats (males with a body weight of approximately 250-350 g) were given a single intravenous (i.v. bolus) injection of the peptide to be tested. Following i.v. administration of compound 1 (dose 510 nmol/kg, dosing volume […]), blood samples were drawn at 10 min, 15 min, 40 min, 1 h, 2 h, 4 h, 8 h, 24 h post-dose. At each sampling time point, samples from the rats were drawn by tail cut. The dosing vehicle was 20 mM phosphate buffer, 260 mM mannitol, pH 7.
(§1) Plasma samples were analyzed after protein precipitation by liquid chromatography mass spectrometry (LC-MS/MS). Individual plasma concentrations were used for calculation of the pharmacokinetic parameters using the non-compartmental approach in Phoenix WinNonlin 8.3 or a later version. Plasma terminal elimination half-life (T½) was determined as ln(2)/λz where λz is the magnitude of the slope of the log linear regression of the log concentration versus time profile during the terminal phase. AUCinf is the area under the plasma concentration−time curve extrapolated to infinity (AUCinf=AUClast+Clast/λz, where Clast is the last observed plasma concentration). C0 is the plasma concentration at the dosing time intercept and is back extrapolated by log-linear regression of the first two data points.

[2] = Pharmacokinetics in Beagle dogs, single s.c. and i.v. injection (Example 5); assay type: in vivo; details: male, plasma, 200 ug/kg, dog
Description: The dosing vehicle was PBS buffer, pH 7.

in vivo [3] = details: male, Beagle, dog, plasma, sc
Method: Beagle dogs (males with a body weight of approximately 10-12 kg) were given a single subcutaneous (s.c.) injection of the peptides to be tested. Following s.c. administration of the selected compounds (dose 10, 20, 50, 100, 200 and 400 μg/kg), dosing volume 0.1 m/kg, blood samples were drawn at 0, 3, 6, 8, 12, 24, 48, 72, 96, 120, 144, 168, 192, 216, 240, 264, 288, 312, 336, 576, 744, 936, 1104 and 1272 hours.
Blood was sampled through a venflon on day 1 (excluding the 8-hour timepoint). At the 8-hour sampling time, and the sampling timepoints hereafter, the blood was be sampled through v. jugularis with a vacutainer and vacutainer needle. The dosing vehicle was PBS buffer, pH 7.
as §1, with “is” for “is the plasma concentration at the dosing time intercept and is”

[4] = Pharmacokinetics in rats, single i.v. bolus (Example 11); assay type: in vivo, Sprague Dawley or Wistar rats; details: male, plasma, iv, rat, 511 nmol/kg
Method: Sprague Dawley or Wistar rats (males with a body weight of approximately 250-350 g) were given a single intravenous (i.v. bolus) injection of the peptide to be tested. […] At each sampling time point, samples from the rats were drawn by tail cut. The dosing vehicle was 20 mM phosphate buffer, 260 mM mannitol, pH 7.

Integrin α4β7-MAdCAM-1 = Integrin α4β7-MAdCAM-1 (Homo sapiens, UniProt P13612+P26010); test: cell-based
Integrin α4β7-MAdCAM-1, sequence (P13612 34-1032): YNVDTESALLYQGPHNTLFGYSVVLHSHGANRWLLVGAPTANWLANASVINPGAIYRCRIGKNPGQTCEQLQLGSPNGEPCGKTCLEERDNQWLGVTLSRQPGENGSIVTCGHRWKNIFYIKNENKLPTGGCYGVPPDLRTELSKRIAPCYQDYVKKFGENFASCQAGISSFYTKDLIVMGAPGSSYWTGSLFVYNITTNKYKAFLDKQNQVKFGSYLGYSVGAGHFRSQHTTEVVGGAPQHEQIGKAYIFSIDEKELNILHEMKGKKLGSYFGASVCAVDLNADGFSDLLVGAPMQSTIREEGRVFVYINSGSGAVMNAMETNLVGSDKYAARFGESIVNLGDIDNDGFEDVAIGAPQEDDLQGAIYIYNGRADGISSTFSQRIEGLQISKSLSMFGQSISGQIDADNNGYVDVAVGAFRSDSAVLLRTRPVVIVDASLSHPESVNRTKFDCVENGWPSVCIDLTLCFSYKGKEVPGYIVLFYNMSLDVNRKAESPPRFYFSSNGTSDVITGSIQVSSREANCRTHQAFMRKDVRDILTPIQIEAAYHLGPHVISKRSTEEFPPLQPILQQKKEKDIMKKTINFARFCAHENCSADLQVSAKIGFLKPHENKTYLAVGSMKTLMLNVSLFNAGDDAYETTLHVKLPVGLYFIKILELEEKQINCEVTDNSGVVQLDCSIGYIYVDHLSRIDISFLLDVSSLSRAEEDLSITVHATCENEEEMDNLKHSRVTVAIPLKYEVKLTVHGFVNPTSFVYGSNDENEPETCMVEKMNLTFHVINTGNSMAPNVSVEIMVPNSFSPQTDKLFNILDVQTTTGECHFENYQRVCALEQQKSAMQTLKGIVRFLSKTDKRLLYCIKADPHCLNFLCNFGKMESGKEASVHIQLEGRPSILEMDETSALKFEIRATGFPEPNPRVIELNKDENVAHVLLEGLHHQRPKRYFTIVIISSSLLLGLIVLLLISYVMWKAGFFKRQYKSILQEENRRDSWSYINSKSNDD
Integrin α4β7-MAdCAM-1, sequence (P26010 20-798): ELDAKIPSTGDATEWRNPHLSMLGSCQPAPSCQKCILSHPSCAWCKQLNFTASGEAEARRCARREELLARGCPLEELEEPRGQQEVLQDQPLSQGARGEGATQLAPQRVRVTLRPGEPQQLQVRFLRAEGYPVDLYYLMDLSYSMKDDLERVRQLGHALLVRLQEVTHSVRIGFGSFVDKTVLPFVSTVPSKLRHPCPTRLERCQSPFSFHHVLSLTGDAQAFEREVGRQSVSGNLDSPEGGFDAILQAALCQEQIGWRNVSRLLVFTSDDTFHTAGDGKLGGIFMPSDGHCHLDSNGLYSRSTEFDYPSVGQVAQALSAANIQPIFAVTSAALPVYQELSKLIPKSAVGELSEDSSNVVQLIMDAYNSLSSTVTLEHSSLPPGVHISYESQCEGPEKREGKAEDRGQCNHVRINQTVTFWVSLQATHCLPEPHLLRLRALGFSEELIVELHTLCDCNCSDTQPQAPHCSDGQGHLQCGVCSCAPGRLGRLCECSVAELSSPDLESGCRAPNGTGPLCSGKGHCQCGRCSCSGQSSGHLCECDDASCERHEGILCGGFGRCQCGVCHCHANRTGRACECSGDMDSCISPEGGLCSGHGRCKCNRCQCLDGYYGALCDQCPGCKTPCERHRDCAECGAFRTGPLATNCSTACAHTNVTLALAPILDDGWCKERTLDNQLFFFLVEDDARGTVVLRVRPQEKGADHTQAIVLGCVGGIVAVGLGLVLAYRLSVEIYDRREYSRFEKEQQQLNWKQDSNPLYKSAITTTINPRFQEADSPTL
Method: Recombinant human MAdCAM-1 (rhMAdCAM-1) was obtained from R&D systems (Cat #6056-MC-050).
Binding buffer (1.5 mM CaCl2, 1 mM MnCl2, 100 mM NaCl, 50 mM TRIS-HCl (pH 7.5)
Cells: The human B lymphocyte cell line RPMI 8866 was obtained from Merck via ECACC (European collection of authenticated cell cultures) (Cat #95041316 and lot #14G012).
Day 0: RPMI 8866 cells were split to a concentration of 500.000 cells/mL.
A Maxisorp plate was coated with 100 μL/well of 1 μg/mL rhMAdCAM-1 in coating buffer. Plate was sealed with TopSeal A plus and incubated at 4° C. overnight.
Day 1: The plate was washed twice with 150 μL wash buffer and then blocked with 250 μL/well blocking buffer (1% BSA in PBS) for one hour at room temperature. CFSE Celltrace stock solution was prepared immediately prior to use by adding 18 μL of DMSO to one vial of CellTrace™ reagent and mixing well. […]
The cells were pelleted by centrifugation and resuspended in fresh pre-warmed complete culture medium and the cells were counted. […]
After the last wash, 100 μL of PBS (without Mg^2+ and Ca^2+) was added to each well and the fluorescence was read (Ex485/Em535) using a plate reader (Envision 2105 Multimode plate reader). To calculate the concentration response, the fluorescence value of control wells not containing cells was subtracted from each test well.
IC50 values were calculated using 4-parameter nonlinear fit of the data.

**Q.** For `CC[C@H](C)[C@@H]1NC(=O)[C@H](CC(=O)O)NC(=O)[C@H](CC(C)C)NC(=O)c2ccc(-c3ccc(N4CCN(C(=O)c5ccccc5-c5ccccc5C(=O)N5CCN(c6ccc(-c7ccc8cc7CNC(=O)[C@@H]7CCCN7[C@H](C(=O)NC(C)(C)C)[C@H](C)NC(=O)[C@H]([C@@H](C)CC)NC(=O)[C@H](CC(=O)O)NC(=O)[C@H](CC(C)C)NC8=O)cc6)CC5)CC4)cc3)c(c2)CNC(=O)[C@@H]2CCCN2[C@H](C(=O)NC(C)(C)C)[C@H](C)NC1=O` [Compound 1, 2,2′-((S,S,S,S,S,S,12S,8S, 11S,14S,17S,18S)-((([1,1′-biphenyl]-2,2′-dicarbonyl)bis(piperazine-4,1-diyl))bis(4,1-phenylene))bis(14-((S)-sec-butyl)-18-(tert-butylcarbamoyl)-8-isobutyl-17-methyl-2,6,9,12,15-pentaoxo-3,7,10,13,16-pentaaza-1(2,1)-pyrrolidina-5(1,3)-benzenacyclooctadecaphane-56,11-diyl))diacetic acid], which AUC(0-inf) (in vivo [1]) is on record?
**A.** Its AUC(0-inf) is 32.2 µM·h.

**Q.** And the half-life (in vivo [1])?
**A.** The half-life was 5.61 h.

**Q.** What about the AUC(0-inf) ([2]; IV) of the same compound?
**A.** Its AUC(0-inf) is 19.3 µM·h.

**Q.** What about the Cmax ([2]; IV) of the same compound?
**A.** The Cmax was 743 nM.

**Q.** And the half-life ([2]; IV)?
**A.** The half-life was 53 h.

**Q.** What about the AUC(0-inf) ([2]; SC) of the same compound?
**A.** The AUC(0-inf) was 21.8 µM·h.

**Q.** What about the Cmax ([2]; SC) of the same compound?
**A.** Its Cmax is 127 nM.

**Q.** What about the half-life ([2]; SC) of the same compound?
**A.** Its half-life is 95.2 h.

**Q.** What about the AUC(0-inf) (in vivo [3]; 10 ug/kg) of the same compound?
**A.** Its AUC(0-inf) is 2.46 µM·h.

**Q.** And the Cmax (in vivo [3]; 10 ug/kg)?
**A.** Its Cmax is 18.1 nM.

**Q.** What about the Tmax (in vivo [3]; 10 ug/kg) of the same compound?
**A.** The Tmax was 20 h.

**Q.** And the half-life (in vivo [3]; 10 ug/kg)?
**A.** The half-life was 340 h.

**Q.** What about the AUC(0-inf) (in vivo [3]; 20 ug/kg) of the same compound?
**A.** Its AUC(0-inf) is 5.68 µM·h.

**Q.** And the Cmax (in vivo [3]; 20 ug/kg)?
**A.** Its Cmax is 43.1 nM.

**Q.** What about the Tmax (in vivo [3]; 20 ug/kg) of the same compound?
**A.** The Tmax was 20 h.

**Q.** And the half-life (in vivo [3]; 20 ug/kg)?
**A.** Its half-life is 460 h.

**Q.** And the AUC(0-inf) (in vivo [3]; 50 ug/kg)?
**A.** Its AUC(0-inf) is 11.6 µM·h.

**Q.** What about the Cmax (in vivo [3]; 50 ug/kg) of the same compound?
**A.** Its Cmax is 102 nM.

**Q.** And the Tmax (in vivo [3]; 50 ug/kg)?
**A.** The Tmax was 20 h.

**Q.** What about the half-life (in vivo [3]; 50 ug/kg) of the same compound?
**A.** Its half-life is 340 h.

**Q.** What about the AUC(0-inf) (in vivo [3]; 100 ug/kg) of the same compound?
**A.** Its AUC(0-inf) is 58.6 µM·h.

**Q.** What about the Cmax (in vivo [3]; 100 ug/kg) of the same compound?
**A.** The Cmax was 504 nM.

**Q.** What about the Tmax (in vivo [3]; 100 ug/kg) of the same compound?
**A.** Its Tmax is 20 h.

**Q.** What about the half-life (in vivo [3]; 100 ug/kg) of the same compound?
**A.** The half-life was 230 h.

**Q.** And the AUC(0-inf) (in vivo [3]; 200 ug/kg)?
**A.** The AUC(0-inf) was 72.5 µM·h.

**Q.** And the Cmax (in vivo [3]; 200 ug/kg)?
**A.** The Cmax was 417 nM.

**Q.** What about the Tmax (in vivo [3]; 200 ug/kg) of the same compound?
**A.** The Tmax was 20 h.

**Q.** And the half-life (in vivo [3]; 200 ug/kg)?
**A.** Its half-life is 230 h.

**Q.** What about the AUC(0-inf) (in vivo [3]; 400 ug/kg) of the same compound?
**A.** The AUC(0-inf) was 158 µM·h.

**Q.** What about the Cmax (in vivo [3]; 400 ug/kg) of the same compound?
**A.** The Cmax was 927 nM.

**Q.** What about the Tmax (in vivo [3]; 400 ug/kg) of the same compound?
**A.** The Tmax was 20 h.

**Q.** And the half-life (in vivo [3]; 400 ug/kg)?
**A.** Its half-life is 260 h.

**Q.** And the AUC(0-inf) [4]?
**A.** Its AUC(0-inf) is 34 µM·h.

**Q.** And the C0 [4]?
**A.** Its C0 is 9020 nM.

**Q.** And the half-life [4]?
**A.** The half-life was 7.88 h.

**Q.** And the IC50 (Integrin α4β7-MAdCAM-1)?
**A.** The IC50 was 35 nM.
